One test concerns the target T1, MGL (Rattus norvegicus, UniProt Q8R431).
T1 construct: one g rat brain was homogenized using a Polytron homogenizer; from tissue; host or cells: rat brain homogenate
T1 sequence (Q8R431 1-303): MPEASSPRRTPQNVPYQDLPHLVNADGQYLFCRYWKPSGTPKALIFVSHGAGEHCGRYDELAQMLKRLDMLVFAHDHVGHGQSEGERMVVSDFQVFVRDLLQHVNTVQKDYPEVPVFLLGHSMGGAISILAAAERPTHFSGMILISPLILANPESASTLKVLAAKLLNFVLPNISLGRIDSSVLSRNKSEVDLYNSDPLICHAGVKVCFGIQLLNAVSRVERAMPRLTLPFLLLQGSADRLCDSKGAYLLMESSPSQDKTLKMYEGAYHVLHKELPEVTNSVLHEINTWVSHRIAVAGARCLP
Description: 2-AG accumulation assay in rat brain homogenate. The test is classed as biochemical. As to conditions: rat brain homogenate, 2-AG accumulation as percent of vehicle; for 2-AG accumulation, % of vehicle control at 10 µM: compound 10 μM, read-out: Rat Brain 2AG % VehCntrl (%) @ 10 μM; for 2-AG accumulation, % of vehicle control at 1 µM: compound 1 μM, read-out: Rat Brain 2AG % VehCntrl (%) @ 1 μM.

The target in the next test is T2, mutant MGL (Homo sapiens, UniProt Q99685, L169S/L176S).
T2 sequence (Q99685 1-303 L169S/L176S): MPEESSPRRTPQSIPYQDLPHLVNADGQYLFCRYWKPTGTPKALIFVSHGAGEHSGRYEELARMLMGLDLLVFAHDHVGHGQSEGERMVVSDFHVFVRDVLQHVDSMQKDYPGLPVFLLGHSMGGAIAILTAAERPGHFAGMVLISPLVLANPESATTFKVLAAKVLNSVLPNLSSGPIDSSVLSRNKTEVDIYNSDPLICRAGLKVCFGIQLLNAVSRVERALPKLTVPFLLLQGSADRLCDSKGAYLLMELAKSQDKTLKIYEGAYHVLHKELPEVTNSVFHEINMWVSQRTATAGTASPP
In words: MGL ThermoFluor assay - mutant. The test is classed as binding. Background: DSF heats the sample and reads unfolding from a dye or from intrinsic fluorescence.

Test [1] deals with T3, purified wild type MGL (wt-MGLL 6H-11-313) (Homo sapiens, UniProt Q99685).
T3 sequence (Q99685 1-303): T2 sequence (Q99685 1-303 L169S/L176S) with S169L, S176L

The mark [2] stands for this setting: ThermoFluor, compound concentration measured by qNMR, read-out: MGL mutant ThermoFluor qKd (μM) (using qNMR conc.).
Where [3] appears, read: compound concentration measured by qNMR, read-out: MGL mutant ThermoFluor qKd (using qNMR conc.).
Setting [4] is: ThermoFluor concentration-response, read-out: MGL mutant ThermoFluor Kd.

Numbering of substitutions follows the chain as printed. Like-named read-outs stand apart in the source and are kept apart here.

For `CC(C)(C)OC(=O)N1CC[C@H](Oc2ccc(C(=O)N3CC(N4CCN(C(=O)c5ccccc5)CC4)C3)cc2)C1` [Cpd 434, tert-Butyl (3S)-3-[4-({3-[4-(phenylcarbonyl)piperazin-1-yl]azetidin-1-yl}carbonyl)phenoxy]pyrrolidine-1-carboxylate], the 2-AG accumulation, % of vehicle control at 10 µM on MGL came out at 737%.

`O=C(c1ccc(Sc2cccc(C(F)(F)F)c2)cc1)N1CC(N2CCN(C(=O)c3nccs3)CC2)C1` [Cpd 431]: the 2-AG accumulation, % of vehicle control at 1 µM at MGL was 703%.

As to `Nc1cccc(-c2ccc(C(=O)N3CC(N4CCN(C(=O)c5nccs5)CC4)C3)cc2)c1` [Cpd 230, 4′-({3-[4-(1,3-Thiazol-2-ylcarbonyl)piperazin-1-yl]azetidin-1-yl}carbonyl)biphenyl-3-amine], the 2-AG accumulation, % of vehicle control at 10 µM at MGL was 567%. `N#CCc1cccc(-c2ccc(C(=O)N3CC(N4CCN(C(=O)c5nccs5)CC4)C3)cc2)c1` [Cpd 207, [4′-({3-[4-(1,3-Thiazol-2-ylcarbonyl)piperazin-1-yl]azetidin-1-yl}carbonyl)biphenyl-3-yl]acetonitrile]: the 2-AG accumulation, % of vehicle control at 10 µM at MGL is 402%. `O=C(c1ccccc1)N1CCN(C2CN(C(=O)c3ccc(-c4ccc(C(F)(F)F)s4)cc3)C2)CC1` [Cpd 581, 1-(Phenylcarbonyl)-4-[1-({4-[5-(trifluoromethyl)thiophen-2-yl]phenyl}carbonyl)azetidin-3-yl]piperazine]: at MGL, the 2-AG accumulation, % of vehicle control at 1 µM worked out at 140%. On to `O=C(c1ccc(-c2cccc3ncccc23)cc1)N1CC(N2CCN(C(=O)c3nccs3)CC2)C1` [Cpd 184, 5-[4-({3-[4-(1,3-Thiazol-2-ylcarbonyl)piperazin-1-yl]azetidin-1-yl}carbonyl)phenyl]quinoline], for which, on MGL, the 2-AG accumulation, % of vehicle control at 10 µM stood at 956%. `O=C(c1ccc(-c2ccc(O)cc2)cc1)N1CC(N2CCN(C(=O)c3nccs3)CC2)C1` [Cpd 211, 4′-({3-[4-(1,3-Thiazol-2-ylcarbonyl)piperazin-1-yl]azetidin-1-yl}carbonyl)biphenyl-4-ol]: the 2-AG accumulation, % of vehicle control at 10 µM on MGL is 725%. Consider `O=C(c1ccccc1)N1CCN(C2CN(C(=O)c3sc4cc(C(F)(F)F)ccc4c3Cl)C2)CC1` [Cpd 336], for which the 2-AG accumulation, % of vehicle control at 1 µM on MGL amounted to 223%. Still for that read-out and setting: the figure for `O=C(c1ccc2c(c1)CCCN2C(=O)c1ccc(C(F)(F)F)cc1)N1CC(N2CCN(C(=O)c3nccs3)CC2)C1` [Cpd 365, 6-({3-[4-(1,3-Thiazol-2-ylcarbonyl)piperazin-1-yl]azetidin-1-yl}carbonyl)-1-(4-trifluoromethylbenzoyl)-1,2,3,4-tetrahydroquinoline] is 971%. With `O=C(CCc1ccc(Cl)c(Cl)c1)N1CC(N2CCN(C(=O)c3nccs3)CC2)C1` [Cpd 281, 1-{1-[3-(3,4-Dichlorophenyl)propanoyl]azetidin-3-yl}-4-(1,3-thiazol-2-ylcarbonyl)piperazine], the 2-AG accumulation, % of vehicle control at 10 µM on MGL amounted to 201%. The same measure, in the same setting: the figure for `Cc1nc(-c2ccc(C(F)(F)F)cc2)sc1C(=O)N1CC(N2CCN(C(=O)c3nccs3)CC2)C1` [Cpd 136, 1-[1-({4-Methyl-2-[4-(trifluoromethyl)phenyl]-1,3-thiazol-5-yl}carbonyl)azetidin-3-yl]-4-(1,3-thiazol-2-ylcarbonyl)piperazine] is 612%.

As for `CC(C)(C)OC(=O)Nc1cccc(-c2ccc(C(=O)N3CC(N4CCN(C(=O)c5nccs5)CC4)C3)cc2)c1` [Cpd 220, tert-Butyl [4′-({3-[4-(1,3-thiazol-2-ylcarbonyl)piperazin-1-yl]azetidin-1-yl}carbonyl)biphenyl-3-yl]carbamate], the 2-AG accumulation, % of vehicle control at 10 µM at MGL worked out at 993%. With `O=C(CCc1ccccc1Cl)N1CC(N2CCN(C(=O)c3nccs3)CC2)C1` [Cpd 273, 1-{1-[3-(2-Chlorophenyl)propanoyl]azetidin-3-yl}-4-(1,3-thiazol-2-ylcarbonyl)piperazine], on MGL, the 2-AG accumulation, % of vehicle control at 10 µM is 623%.

On to `O=C(c1ccc(-c2cccs2)cc1)N1CC(N2CCN(C(=O)c3nccs3)CC2)C1` [Cpd 138, 1-(1,3-Thiazol-2-ylcarbonyl)-4-{1-[(4-thiophen-2-ylphenyl)carbonyl]azetidin-3-yl}piperazine], for which the 2-AG accumulation, % of vehicle control at 10 µM at MGL was found to be 661%.

`O=C(c1ccccc1)N1CCN(C2CN(C(=O)c3ccc(-c4ccc(C(F)(F)F)cc4)cc3)C2)CC1` [Cpd 75, 1-(Phenylcarbonyl)-4-(1-{[4′-(trifluoromethyl)biphenyl-4-yl]carbonyl}azetidin-3-yl)piperazine]: the 2-AG accumulation, % of vehicle control at 10 µM at MGL is 193%. Still for that read-out and setting: the figure for `O=Cc1cccc(-c2ccc(C(=O)N3CC(N4CCN(C(=O)c5nccs5)CC4)C3)cc2)c1` [Cpd 210, 4′-({3-[4-(1,3-Thiazol-2-ylcarbonyl)piperazin-1-yl]azetidin-1-yl}carbonyl)biphenyl-3-carbaldehyde] is 122%; for `Cc1nc(-c2cccs2)sc1C(=O)N1CC(N2CCN(C(=O)c3nccs3)CC2)C1` [Cpd 134, 1-{1-[(4-Methyl-2-thiophen-2-yl-1,3-thiazol-5-yl)carbonyl]azetidin-3-yl}-4-(1,3-thiazol-2-ylcarbonyl)piperazine] it is 582%. Regarding `O=C(c1ccc[nH]1)N1CCN(C2CN(C(=O)c3cc4ccc(C(F)(F)F)nc4[nH]3)C2)CC1` [Cpd 1447], the Kd at mutant MGL (setting [2]) worked out at 3.33 µM. Also, in test [1], the IC50 is greater than 16700 nM. For `Cc1nc2c(C)ccc(Cl)c2cc1C(=O)N1CC(N2CCN(C(=O)c3nccs3)CC2)C1` [Cpd 791], the Kd on mutant MGL (ThermoFluor, compound concentration measured by qNMR, read-out: MGL mutant ThermoFluor qKd (using qNMR conc.)) was 0.402 µM. This molecule returned an IC50 in test [1] of 1450 nM. As to `O=C(c1ccc(-c2cccc(C(F)(F)F)c2)cc1)N1CC(N2CCN(C(=O)c3ccno3)CC2)C1` [Cpd 1118], the Kd on mutant MGL (setting [2]) is 0.053 µM. The IC50 in test [1] worked out at 16 nM. `O=C(c1ccc2c(ccn2-c2ccc(F)cc2)c1)N1CC(N2CCN(C(=O)c3cnco3)CC2)C1` [Cpd 1429]: the Kd on mutant MGL (setting [2]) amounted to 0.097 µM. In test [1], this molecule showed an IC50 of 36 nM. `O=C(c1ccc2nc(-c3nccs3)sc2c1)N1CC(N2CCN(C(=O)c3nccs3)CC2)C1` [Cpd 1210]: the Kd on mutant MGL (setting [2]) stood at 0.097 µM. Moreover, in test [1], the IC50 worked out at 195 nM. Regarding `O=C(c1ccccc1)N1CCN(C2CN(C(=O)c3cccc4[nH]c(-c5ccc(F)cc5)nc34)C2)CC1` [Cpd 602], at mutant MGL (ThermoFluor thermal stability binding assay, read-out: MGL mutant ThermoFluor Kd), the Kd is 0.5 µM. Besides, the midpoint of inhibition in test [1], the IC50, lay at 1720 nM. With `O=C(c1ccc2[nH]ccc2c1)N1CC(N2CCN(C(=O)c3ccc[nH]3)CC2)C1` [Cpd 856], the Kd at mutant MGL (setting [2]) was 0.855 µM. 8490 nM corresponded to half-maximal inhibition in test [1] (IC50).

With `O=C(c1ccc2c(cnn2CCc2ccc(F)cc2)c1)N1CC(N2CCN(C(=O)c3nccs3)CC2)C1` [Cpd 1049, 1-[2-(4-Fluorophenyl)ethyl]-5-({3-[4-(1,3-thiazol-2-ylcarbonyl)piperazin-1-yl]azetidin-1-yl}carbonyl)-1H-indazole], the Kd on mutant MGL (setting [3]) was found to be 0.05 µM. Also, inhibition in test [1] was half-maximal at 10 nM (IC50). For the molecule `COc1ccc2c(C)c(C(=O)N3CC(N4CCN(C(=O)c5nccs5)CC4)C3)oc2c1` [Cpd 721], the Kd at mutant MGL (setting [4]) is 1.14 µM. In test [1], this molecule showed an IC50 of 173 nM.

Consider `O=C(c1ccc2c(c1)ncn2-c1ccccc1)N1CC(N2CCN(C(=O)c3nccs3)CC2)C1` [Cpd 1207], for which, at mutant MGL (setting [4]), the Kd is 0.014 µM. Also, inhibition in test [1] was half-maximal at 179 nM (IC50).

For the molecule `COc1cccc2c(C)c(C(=O)N3CCN(C4CN(C(=O)c5cscn5)C4)CC3)[nH]c12` [Cpd 857], the Kd on mutant MGL (setting [4]) worked out at 3.33 µM. For the same molecule, half-maximal inhibition in test [1] (IC50) required 8720 nM.

Consider `Cc1cn(-c2ccc(F)cc2)c2ccc(C(=O)N3CCN(C4CN(C(=O)c5cscn5)C4)CC3)cc12` [Cpd 1230, 1-(4-Fluorophenyl)-3-methyl-5-({4-[1-(1,3-thiazol-4-ylcarbonyl)azetidin-3-yl]piperazin-1-yl}carbonyl)-1H-indole], for which the Kd at mutant MGL (setting [4]) came to 0.009 µM. The same molecule returned an IC50 in test [1] of 307 nM. Regarding `O=C(c1ccc2c(cnn2Cc2cccc(C(F)(F)F)c2)c1)N1CC(N2CCN(C(=O)c3nccs3)CC2)C1` [Cpd 1038, 5-({3-[4-(1,3-Thiazol-2-ylcarbonyl)piperazin-1-yl]azetidin-1-yl}carbonyl)-1-[3-(trifluoromethyl)benzyl]-1H-indazole], the Kd on mutant MGL (setting [3]) worked out at 0.002 µM. In test [1], this molecule came in with an IC50 of less than 5 nM.

One may read the IC50 as the concentration that inhibits the measured activity by half. Low readings indicate greater potency, high ones weaker potency.

(Values after patent publication US8362000B2, “Azetidinyl diamides as monoacylglycerol lipase inhibitors” (Janssen Pharmaceutica NV, priority 2009, dated 2013).)
